Measurements: ChEMBL document CHEMBL1275354, “Anticonvulsant activity of 2,4(1H)-diarylimidazoles in mice and rats acute seizure models” (Bioorg Med Chem, 2010)
Active and inactive are the calls of the source. The calls are words filed in the database; no cut-off is given here.

Assays:
[1] = test system: Mus musculus; assay: Neurotoxicity in ip dosed albino CF1 mouse assessed as minimum dose required to cause toxicity after 0.5 hrs by rotarod test; type: organism-based; settings: in vivo
[2] = test system: Mus musculus; assay: Neurotoxicity in albino CF1 mouse assessed as minimal motor impairment at 30 mg/kg, ip after 0.5 hrs by rotarod test; type: toxicity, organism-based; parameters: dose 30 mg/kg, route intraperitoneal; settings: in vivo
[3] = test system: Mus musculus; assay: Anticonvulsant activity in albino CF1 mouse assessed as protection against maximal electroshock-induced seizures at 100 mg/kg, ip after 0.5 hrs; type: functional, organism-based; parameters: dose 100 mg/kg
[4] = test system: Mus musculus; assay: Anticonvulsant activity against subcutaneous metrazole-induced seizures in ip dosed albino CF1 mouse assessed as minimum effective dose after 4 hrs; type: functional; settings: albino CF1, 4 h, read-out: MED
[5] = test system: Rattus norvegicus; assay: Neurotoxicity in albino Sprague-Dawley rat assessed as minimal motor impairment at 30 mg/kg, po by rotarod test; type: toxicity, organism-based; parameters: dose 30 mg/kg, route oral; settings: in vivo
[6] = test system: Rattus norvegicus; assay: Anticonvulsant activity in albino Sprague-Dawley rat assessed as protection against maximal electroshock-induced seizures at 30 mg/kg, po after 0.25 hrs; type: functional, organism-based; parameters: dose 30 mg/kg
[7] = test system: Rattus norvegicus; assay: Anticonvulsant activity in albino Sprague-Dawley rat assessed as protection against maximal electroshock-induced seizures at 30 mg/kg, po after 0.5 hrs; type: functional, organism-based; parameters: dose 30 mg/kg
[8] = test system: Rattus norvegicus; assay: Anticonvulsant activity in albino Sprague-Dawley rat assessed as protection against maximal electroshock-induced seizures at 30 mg/kg, po after 1 hr; type: functional, organism-based; parameters: dose 30 mg/kg
[9] = test system: Rattus norvegicus; assay: Anticonvulsant activity in albino Sprague-Dawley rat assessed as protection against maximal electroshock-induced seizures at 30 mg/kg, po after 2 hrs; type: functional, organism-based; parameters: dose 30 mg/kg
[10] = test system: Rattus norvegicus; assay: Anticonvulsant activity in albino Sprague-Dawley rat assessed as protection against maximal electroshock-induced seizures at 30 mg/kg, po after 4 hrs; type: functional, organism-based; parameters: dose 30 mg/kg
[11] = test system: Mus musculus; assay: Neurotoxicity in albino CF1 mouse assessed as minimal motor impairment at 30 mg/kg, ip after 4 hrs by rotarod test; type: toxicity, organism-based; parameters: dose 30 mg/kg, route intraperitoneal; settings: in vivo
[12] = test system: Mus musculus; assay: Neurotoxicity in albino CF1 mouse assessed as minimal motor impairment at 100 mg/kg, ip after 4 hrs by rotarod test; type: toxicity, organism-based; parameters: dose 100 mg/kg, route intraperitoneal; settings: in vivo
[13] = test system: Mus musculus; assay: Anticonvulsant activity in albino CF1 mouse assessed as protection against maximal electroshock-induced seizures at 100 mg/kg, ip after 4 hrs; type: functional, organism-based; parameters: dose 100 mg/kg
[14] = test system: Mus musculus; assay: Anticonvulsant activity in albino CF1 mouse assessed as protection against maximal electroshock-induced seizures at 300 mg/kg, ip after 0.5 hrs; type: functional, organism-based; parameters: dose 300 mg/kg
[15] = test system: Mus musculus; assay: Anticonvulsant activity in albino CF1 mouse assessed as protection against maximal electroshock-induced seizures at 300 mg/kg, ip after 4 hrs; type: functional, organism-based; parameters: dose 300 mg/kg
[16] = test system: Mus musculus; assay: Anticonvulsant activity in albino CF1 mouse assessed as protection against subcutaneous metrazole-induced seizures at 30 mg/kg, ip after 0.5 hrs; type: functional, organism-based; parameters: dose 30 mg/kg
[17] = test system: Mus musculus; assay: Anticonvulsant activity in albino CF1 mouse assessed as protection against subcutaneous metrazole-induced seizures at 30 mg/kg, ip after 4 hrs; type: functional, organism-based; parameters: dose 30 mg/kg
[18] = test system: Mus musculus; assay: Anticonvulsant activity in albino CF1 mouse assessed as protection against subcutaneous metrazole-induced seizures at 100 mg/kg, ip after 0.5 hrs; type: functional, organism-based; parameters: dose 100 mg/kg
[19] = test system: Mus musculus; assay: Anticonvulsant activity in albino CF1 mouse assessed as protection against subcutaneous metrazole-induced seizures at 100 mg/kg, ip after 4 hrs; type: functional, organism-based; parameters: dose 100 mg/kg
[20] = test system: Mus musculus; assay: Anticonvulsant activity in albino CF1 mouse assessed as protection against subcutaneous metrazole-induced seizures at 300 mg/kg, ip after 0.5 hrs; type: functional, organism-based; parameters: dose 300 mg/kg
[21] = test system: Mus musculus; assay: Anticonvulsant activity in albino CF1 mouse assessed as protection against subcutaneous metrazole-induced seizures at 300 mg/kg, ip after 4 hrs; type: functional, organism-based; parameters: dose 300 mg/kg
[22] = test system: Mus musculus; assay: Anticonvulsant activity in albino CF1 mouse assessed as protection against maximal electroshock-induced seizures at 30 mg/kg, ip after 0.5 hrs; type: functional, organism-based; parameters: dose 30 mg/kg
[23] = test system: Mus musculus; assay: Anticonvulsant activity in albino CF1 mouse assessed as protection against maximal electroshock-induced seizures at 30 mg/kg, ip after 4 hrs; type: functional, organism-based; parameters: dose 30 mg/kg
[24] = test system: Mus musculus; assay: Neurotoxicity in ip dosed albino CF1 mouse assessed as minimum dose required to cause toxicity after 4 hrs by rotarod test; type: organism-based; settings: in vivo
[25] = test system: Mus musculus; assay: Anticonvulsant activity against maximal electroshock-induced seizures in ip dosed albino CF1 mouse assessed as minimum effective dose after 0.5 hrs; type: functional; settings: read-out: MED
[26] = test system: Mus musculus; assay: Anticonvulsant activity against maximal electroshock-induced seizures in ip dosed albino CF1 mouse assessed as minimum effective dose after 4 hrs; type: functional; settings: read-out: MED
[27] = test system: Mus musculus; assay: Anticonvulsant activity against subcutaneous metrazole-induced seizures in ip dosed albino CF1 mouse assessed as minimum effective dose after 0.5 hrs; type: functional; settings: albino CF1, 0.5 h, read-out: MED
[28] = test system: Mus musculus; assay: Neurotoxicity in albino CF1 mouse assessed as minimal motor impairment at 30 to 300 mg/kg, ip after 0.5 hrs by rotarod test; settings: in vivo
[29] = test system: Mus musculus; assay: Neurotoxicity in albino CF1 mouse assessed as minimal motor impairment at 100 mg/kg, ip after 0.5 hrs by rotarod test; type: toxicity, organism-based; parameters: dose 100 mg/kg, route intraperitoneal; settings: in vivo
[30] = test system: Mus musculus; assay: Neurotoxicity in albino CF1 mouse assessed as minimal motor impairment at 300 mg/kg, ip after 0.5 hrs by rotarod test; type: toxicity, organism-based; parameters: dose 300 mg/kg, route intraperitoneal; settings: in vivo
[31] = test system: Mus musculus; assay: Neurotoxicity in albino CF1 mouse assessed as minimal motor impairment at 300 mg/kg, ip after 4 hrs by rotarod test; type: toxicity, organism-based; parameters: dose 300 mg/kg, route intraperitoneal; settings: in vivo
[32] = test system: Mus musculus; assay: Neurotoxicity in albino CF1 mouse assessed as minimal motor impairment at 30 to 300 mg/kg, po after 4 hrs by rotarod test; type: toxicity, organism-based; parameters: dose 30-300 mg/kg, route oral; settings: in vivo

SMILES | MED [1] | Activity [2] | minimal effective dose [4] | Activity [11] | Activity [12] | Activity [13] | Activity [14] | Activity [15] | Activity [16] | Activity [17] | Activity [18] | Activity [19] | Activity [20] | Activity [21] | Activity [22] | Activity [23] | MED [24] | minimal effective dose [25] | minimal effective dose [26] | minimal effective dose [27] | also measured
c1ccc(-c2c[nH]c(-c3cccnc3)n2)cc1 | 100 mg/kg | Non-toxic | > 300 mg/kg | Non-toxic | Non-toxic | inactive | Active | Active | inactive | inactive | Active | inactive | Active | inactive | inactive | inactive | 100 mg/kg | 100 mg/kg | 100 mg/kg | 100 mg/kg | Activity [3]: Active; Activity [5]: Non-toxic; Activity [6]: inactive; Activity [7]: inactive; Activity [8]: inactive; Activity [9]: inactive; Activity [10]: inactive; Activity [28]: Non-toxic
O=[N+]([O-])c1ccc(-c2nc(-c3cccc(C(F)(F)F)c3)c[nH]2)cc1 | > 300 mg/kg | Non-toxic | > 300 mg/kg | Non-toxic | Non-toxic | inactive | inactive | Active | inactive | inactive | inactive | inactive | inactive | inactive | inactive | inactive | > 300 mg/kg | > 300 mg/kg | 100 mg/kg | > 300 mg/kg | Activity [3]: inactive; Activity [29]: Non-toxic; Activity [30]: Non-toxic; Activity [31]: Non-toxic; Activity [32]: Non-toxic; Activity [28]: Non-toxic
O=[N+]([O-])c1ccc(-c2c[nH]c(-c3ccccc3)n2)cc1 | > 300 mg/kg | Non-toxic | > 300 mg/kg | Non-toxic | Non-toxic | inactive | Active | Active | inactive | inactive | inactive | inactive | inactive | inactive | inactive | inactive | > 300 mg/kg | 100 mg/kg | 100 mg/kg | > 300 mg/kg | Activity [29]: Non-toxic; Activity [30]: Non-toxic; Activity [31]: Non-toxic; Activity [32]: Non-toxic; Activity [28]: Non-toxic
